Source: patent US20250114455A1, “RADIOSENSITIZING COMPOSITIONS AND METHODS OF USE THEREOF” (University of Georgia Research Foundation, Inc., priority 2022, published 2025)
Where a SMILES comes first, the peptide text is derived from it. [ ]: non-standard residue; d: D form. The star is where a group is joined. ξ: configuration not given here. ξGly(4-Pip(1-amidino)) = N=C(N)N1CCC(C(N)C(=O)O)CC1; ξGly(piperidin-4-yl) = NC(C(=O)O)C1CCNCC1; ξTle = CC(C)(C)C(N)C(=O)O; ξP = O=C(O)C1CCCN1; X1 = CC(CS)C(=O)*

Experiments:
[1] = LC/MS analysis of autooxidation and lipid peroxidation; conditions: 320 kV, 5 Gy
Protocol: Samples were generated by mixing solutions of 10 mg/mL 7-DHC, or 5 mg/mL DHCEO in 5 mL solvent containing 4 mL CH3CN+1 mL Mil-Q-H2O (or 1 mL H2O2). Samples were treated with either PBS or 5 Gy IR followed by incubation for 24 h. The lipid sample was prepared by using 16:0-18:2 PC mixed with 7-DHC at a 3:1 mole ratio in 2:1 v/v of CHCl3:MeOH solution. The solvent was then rotor evaporated and the mixture was rehydrated in 1 mL Mil-Q-H2O. Samples were subjected to LC/MS analysis. Liquid chromatography was performed on an Applied Biosystems 140 B solvent delivery system using water with 0.1% formic acid as solvent A and acetonitrile as solvent B. The linear solvent gradient was from 70% B to 95% B over 20 minutes at a flow rate of 50 μl/min. A Thermo Hypersil-Keystone 1×150 mm Biobasic-4 column with 5 μm particle size and 300 A pore size was used. The effluent was directed into a Bruker Daltonics Esquire 3000 plus ion trap mass spectrometer equipped with an atmospheric pressure chemical ionization (electrospray ionization for the lipid sample) source. The instrument was scanned in enhanced mode from 340-500 m/z with the capillary at 4 KV. The dry as temperature was held at 300 degrees C. at a flow rate of 41/min nitrogen. The nebulizer was set to 15 PSI of nitrogen. The vaporizer temperature was held at 380 degrees C.

[2] = cited from earlier work
MTT cell viability assay = type: cell-based, murine; conditions: mouse, CT26 cells, no radiation, read-out: IC50 (cytotoxicity)
Protocol: (§1) CT26, a murine colorectal carcinoma cell line, was cultured following the protocol provided by the ATCC. A complete growth medium was prepared by adding 50 mL fetal bovine serum (FBS; Atlanta Biologicals, Cat #S11150) and 5 mL penicillin-streptomycin (Corning Cat #30-002-CI) to 450 mL of RPMI 1640 medium (Corning, Cat #10-104-CV). The cells were sub-cultured every three days and stored in a Thermo Scientific Heracell 150i incubator at 37° C. A day before the experiment, the cells were washed with PBS and collected by trypsinization (37° C., 2 min) followed by neutralization with cell culture medium and centrifugation (1200 rpm, 5 min). The supernatant was removed, and cells were dispersed in new cell culture medium. The cell density was counted using a hemocytometer (Hausser Scientific, Cat #3200) to seed the desired number of cells on the experimental plate(s).
(§2) The cell viability was studied with CT26 cells using the standard MTT assays. Briefly, CT26 cells (10,000 cells per well) were seeded on clear 96-well plates (Corning Costar, Cat #3599). […] 20 μL of 10 mg/mL 3-(4,5-Dimethylthiazolyl-2)-2,5-diphenyltetrazolium bromide (MTT) solution was added into each well. After 4 h incubation at 37° C. and 5% CO2, the solution was discarded from each well, and 100 μL of DMSO was added to each well resulting in purple suspensions. The absorbance at 570 nm was measured using a BioTek Synergy MX multi-mode microplate reader.

CT26 cells = test: MTT cell viability assay; type: cell-based, murine; conditions: 24 h; for toxicity / viability drop in the absence of radiation: 7-DHC concentration below 12.5 μg/mL
Protocol: as §1, §2

NTSR1 = NTSR1 (Homo sapiens, UniProt P30989); conditions: compared to wildtype NTS; cited from earlier work
NTSR1, sequence (P30989 whole entry): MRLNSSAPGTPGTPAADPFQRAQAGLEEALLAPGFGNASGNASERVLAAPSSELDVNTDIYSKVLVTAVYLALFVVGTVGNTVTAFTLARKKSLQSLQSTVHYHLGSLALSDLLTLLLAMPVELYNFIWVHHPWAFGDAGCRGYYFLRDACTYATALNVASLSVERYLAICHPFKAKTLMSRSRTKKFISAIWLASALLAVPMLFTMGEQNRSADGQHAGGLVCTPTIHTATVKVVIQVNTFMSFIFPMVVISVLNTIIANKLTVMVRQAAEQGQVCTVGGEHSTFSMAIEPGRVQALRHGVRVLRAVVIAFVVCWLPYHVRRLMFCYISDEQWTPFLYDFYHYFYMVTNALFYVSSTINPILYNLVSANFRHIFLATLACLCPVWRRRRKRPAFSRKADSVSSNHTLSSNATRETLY

[3] = compared to wildtype NTS; cited from earlier work
serum calcium level = type: in vivo, balb/c mice; conditions: 200 μg/kg injected, healthy mice; tolerated level for mice 8.0-11.5 mg/dl
Protocol: Blood samples were collected at 0, 2, 6, and 24 h for analysis.

CC(C)CCC[C@@H](C)[C@H]1CC[C@H]2C3=CC=C4C[C@@H](O)CC[C@]4(C)[C@H]3CC[C@]12C [7-DHC, 7-dehydrocholesterol]
conversion after radiation (LC/MS) [1]: converted to oxysterols | solubility in water [2]: poorly soluble in water | IC50 at 24 h (MTT cell viability assay): 71.4 µg/mL | toxicity / viability drop in the absence of radiation (CT26 cells): Neither 7-DHC nor 7-DHC@PLGA NPs caused significant viability drop | toxicity / viability drop in the absence of radiation (CT26 cells; listed as free 7-DHC): minimal toxicity

CC(C)C[C@H](NC(=O)C(NC(=O)[C@H](Cc1ccc(O)cc1)NC(=O)C1CCCN1C(=O)[C@H](CCCNC(=N)N)NC(=O)C(NC(=O)C1CCCN1C(=O)C(NC(=O)C(C)CS)C1CCNCC1)C1CCN(C(=N)N)CC1)C(C)(C)C)C(=O)O (stereo partly drawn) [NTSmut] (X1-[ξGly(piperidin-4-yl)][ξP][ξGly(4-Pip(1-amidino))]R[ξP]Y[ξTle]L-OH)
avidity to NTSR1 (NTSR1): nanomolar | biological stability [3]: much greater biological stability

C=C1/C(=C\C=C2/CCC[C@]3(C)[C@@H]([C@H](C)CCCC(C)(C)O)CC[C@@H]23)C[C@@H](O)C[C@@H]1O [calcitriol]
serum calcium (serum calcium level): 17.5 mg/dL

NCCC(=O)N[C@@H](Cc1cnc[nH]1)C(=O)O [carnosine, reference compound]
effect of co-incubation on toxicity induced by 7-DHC@PLGA NPs+IR (CT26 cells; MTT, IR 5 Gy): mitigated toxicity
